Like-named read-outs stand apart in the source and are kept apart here.
How the values were obtained:
Human Androgen Receptor = biological target: T1, Human Androgen Receptor (Homo sapiens, UniProt P10275); test: Androgen receptor binding assay ([3H]R1881, HAP) in cytosol of HEK-293 cells transfected with hAR; conditions: relative to R1881 = 100, transfected cells
T1 sequence (P10275 1-920): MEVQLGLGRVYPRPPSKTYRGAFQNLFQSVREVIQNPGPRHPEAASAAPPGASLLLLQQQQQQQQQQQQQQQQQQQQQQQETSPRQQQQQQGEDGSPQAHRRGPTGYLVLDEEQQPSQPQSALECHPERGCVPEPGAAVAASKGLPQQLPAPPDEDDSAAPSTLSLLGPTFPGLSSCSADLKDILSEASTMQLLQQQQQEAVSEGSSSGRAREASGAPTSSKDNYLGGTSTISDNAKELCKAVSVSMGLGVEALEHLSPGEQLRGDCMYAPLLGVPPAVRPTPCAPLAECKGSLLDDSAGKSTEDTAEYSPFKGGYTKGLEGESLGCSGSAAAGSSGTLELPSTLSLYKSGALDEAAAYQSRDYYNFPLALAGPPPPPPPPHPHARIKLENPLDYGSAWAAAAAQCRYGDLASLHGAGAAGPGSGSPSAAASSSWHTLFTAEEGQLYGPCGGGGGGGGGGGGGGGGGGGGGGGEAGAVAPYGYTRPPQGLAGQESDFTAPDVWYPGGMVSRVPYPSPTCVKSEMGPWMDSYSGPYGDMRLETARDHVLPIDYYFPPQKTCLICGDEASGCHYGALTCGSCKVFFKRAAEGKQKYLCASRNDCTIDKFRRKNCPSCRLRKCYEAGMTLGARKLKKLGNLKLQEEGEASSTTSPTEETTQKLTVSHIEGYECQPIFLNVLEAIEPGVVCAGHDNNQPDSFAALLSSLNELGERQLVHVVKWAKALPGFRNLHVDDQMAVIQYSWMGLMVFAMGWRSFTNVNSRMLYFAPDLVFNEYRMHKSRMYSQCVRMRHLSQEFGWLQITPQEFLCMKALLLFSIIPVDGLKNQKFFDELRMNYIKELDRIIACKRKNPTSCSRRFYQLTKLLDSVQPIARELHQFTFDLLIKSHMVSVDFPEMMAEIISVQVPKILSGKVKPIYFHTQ

[1] = test system: rat prostate, seminal vesicle, levator ani muscle; test: Systemic antiandrogenic activity in orchidectomized immature male rats with DHT implant; format: in vivo; conditions: Rattus norvegicus, 168 h, rat +DHT, 0.5 mg/animal daily 7 days
[2] = test system: Shionogi mouse mammary carcinoma cells; test: Androgenic/antiandrogenic activity: inhibition of DHT-stimulated Shionogi cell number; format: cell-based; conditions: Mus musculus, DHT-stimulated Shionogi cell number
[3] = read-out: Lev Ani % inhibition, Table 1, s.c. or p.o. (route not marked), levator ani
[4] = read-out: Prostate % inhibition, Table 1, s.c. or p.o. (route not marked in cell)
[5] = read-out: SV % inhibition, Table 1, s.c. or p.o. (route not marked), seminal vesicle
[6] = read-out: Shionogi Antiandrogenic Activity IC50, Table 1
[7] = read-out: Lev Ani % inhibition, Table 2, s.c. or p.o. (route not marked), levator ani
[8] = read-out: Prostate % inhibition, Table 2, s.c. or p.o. (route not marked)
[9] = read-out: SV % inhibition, Table 2, s.c. or p.o. (route not marked), seminal vesicle
[10] = read-out: Shionogi Antiandrogenic Activity IC50, Table 2
[11] = Prostate cell, po, read-out: Lev Ani % inhibition, Table 1, p.o, levator ani
[12] = Prostate cell, po, read-out: SV % inhibition, Table 1, p.o, seminal vesicle
[13] = po, read-out: Prostate % inhibition, Table 1, p.o

SMILES	Human Androgen Receptor Binding (%) RBA R1881 = 100 (Human Androgen Receptor; Table 1)	inhibition in vivo at 0.5 mg [1, 3]	inhibition in vivo at 0.5 mg [1, 4]	inhibition in vivo at 0.5 mg [1, 5]	IC50 [2, 6]	Human Androgen Receptor Binding (%) RBA R1881 = 100 (Human Androgen Receptor; Table 2)	inhibition in vivo at 0.5 mg [1, 7]	inhibition in vivo at 0.5 mg [1, 8]	inhibition in vivo at 0.5 mg [1, 9]	IC50 [2, 10]	inhibition in vivo at 0.5 mg [1, 11]	inhibition in vivo at 0.5 mg [1, 12]	inhibition in vivo at 0.5 mg [1, 13]
CN(C)Cc1ccc(OCCCN2C(=S)N(c3ccc(C#N)c(C(F)(F)F)c3)C(=O)C2(C)C)cn1 [EM-7927]	2.4%	61%	32%	55%	6.9 nM								
COc1cc(CNC(C)C)ccc1OCCCN1C(=S)N(c2ccc(C#N)c(C(F)(F)F)c2)C(=O)C1(C)C [EM-7930]	0.5%	41%	47%	71%	9.5 nM								
CC(C)NS(=O)(=O)c1ccc(OCCCN2C(=S)N(c3ccc(C#N)c(C(F)(F)F)c3)C(=O)C2(C)C)cc1 [EM-7957]	5.9%	75%	44%	72%	17.6 nM								
CCC(c1ccc(OCCC2(O)CCN(c3ccc(C#N)c(C(F)(F)F)c3)CC2)c(C)c1)N1CCCC1 (stereo not shown) [EM-8003]						6.4%	44%	11%	35%	22.3 nM			
CCC(CC)NC(CC)c1ccc(OCCC2(O)CCN(c3ccc(C#N)c(C(F)(F)F)c3)CC2)c(C)c1 (stereo not shown) [EM-8006]						8.1%	40%	14%	32%	30.8 nM			
CC1(C)C(=O)N(c2ccc(C#N)c(C(F)(F)F)c2)C(=S)N1CCCOc1ccc(S(C)(=O)=O)cc1 [EM-8056]	6.7%				12 nM						80%	91%	49%
N#Cc1ccc(N2CCC(O)(CCOc3ccc(-c4cccnc4)c(CN4CCCC4)c3)CC2)cc1C(F)(F)F [EM-8058]						1.5%	6%	0%	2%	56.5 nM			
N#Cc1ccc(N2CCC(O)(CCOc3cccc(CN4CCCC4)c3)CC2)cc1C(F)(F)F [EM-8059]						1.0%	0%	1%	21%	68.9 nM			
CC1(C)C(=O)N(c2ccc(C#N)c(C(F)(F)F)c2)C(=S)N1CCCOc1ccc(-n2ccnc2)cc1 [EM-8062]	15.6%				6.6 nM						63%	79%	37%
CCCC(c1ccc(OCCC2(O)CCN(c3ccc(C#N)c(C(F)(F)F)c3)CC2)cc1)N1CCCC1 (stereo not shown) [EM-8096]						6.9%	50%	8%	55%	19.6 nM			
CC(=O)Nc1ccc(OCCCN2C(=S)N(c3ccc(C#N)c(C(F)(F)F)c3)C(=O)C2(C)C)cc1 [EM-8101]	12.1%				18.2 nM						43%	41%	8%
CC1(C)C(=O)N(c2ccc(C#N)c(C(F)(F)F)c2)C(=S)N1CCCOc1ccc(S(=O)(=O)N2CCCC2)cc1 [EM-8103]	29.3%				41.5 nM						16%	37%	18%
N#Cc1ccc(N2CCC(O)(CCOc3ccc(S(=O)(=O)N4CCCC4)cc3)CC2)cc1C(F)(F)F [EM-8130]						4.5%	8%	15%	20%	28.3 nM			
CC(C)S(=O)(=O)c1ccc(OCCCN2C(=S)N(c3ccc(C#N)c(C(F)(F)F)c3)C(=O)C2(C)C)cc1 [EM-8131]	9.3%				9.1 nM						47%	84%	47%
CC(C)Sc1ccc(OCCCN2C(=S)N(c3ccc(C#N)c(C(F)(F)F)c3)C(=O)C2(C)C)cc1 [EM-8132]	1.0%				24 nM						67%	86%	47%
CC1(C)C(=O)N(c2ccc(C#N)c(C(F)(F)F)c2)C(=S)N1CCCOc1ccc2c(c1)OCC2=O [EM-8154]	72.4%				17.1 nM						41%	42%	11%
CC1(C)C(=O)N(c2ccc(C#N)c(C(F)(F)F)c2)C(=S)N1CCCOc1ccc(C(N)=O)cc1 [EM-8156]	17.5%				7.9 nM						47%	65%	32%
COC1(CCOc2ccc(CN3CCCC3)cc2C)CCN(c2ccc(C#N)c(C(F)(F)F)c2)CC1 [EM-8157]						<1.0%	28%	25%	56%	54.3 nM			
CC1(C)C(=O)N(c2ccc(C#N)c(C(F)(F)F)c2)C(=S)N1CCCOc1ccc2oc(=O)ccc2c1 [EM-8158]	88.8%				3.5 nM						32%	70%	38%
CS(=O)(=O)c1ccc(OCCC2(O)CCN(c3ccc(C#N)c(C(F)(F)F)c3)CC2)cc1 [EM-8159]						<1.0%	23%	24%	51%	33.4 nM			
CCS(=O)(=O)c1ccc(OCCCN2C(=S)N(c3ccc(C#N)c(C(F)(F)F)c3)C(=O)C2(C)C)cc1 [EM-8188]	15.6%				13.9 nM						68%	85%	45%
CCCS(=O)(=O)c1ccc(OCCCN2C(=S)N(c3ccc(C#N)c(C(F)(F)F)c3)C(=O)C2(C)C)cc1 [EM-8225]	25.8%				22.4 nM						53%	79%	45%
CC(C)S(=O)(=O)c1ccc(OCCC2(O)CCN(c3ccc(C#N)c(C(F)(F)F)c3)CC2)cc1 [EM-8228]						<1.0%	55%	32%	0%	45.1 nM			
CCCS(=O)(=O)c1ccc(OCCC2(O)CCN(c3ccc(C#N)c(C(F)(F)F)c3)CC2)cc1 [EM-8229]						<1.0%	16%	3%	19%	49.8 nM			
CCS(=O)(=O)c1ccc(OCCC2(O)CCN(c3ccc(C#N)c(C(F)(F)F)c3)CC2)cc1 [EM-8230]						<1.0%	35%	0%	23%	75.9 nM			
Cc1cc(=O)oc2ccc(OCCCN3C(=S)N(c4ccc(C#N)c(C(F)(F)F)c4)C(=O)C3(C)C)cc12 [EM-8259]	39.6%				13.6 nM						53%	53%	31%

Source: patent publication US7709516B2, “Helix 12 directed non-steroidal antiandrogens” (Endorecherche, Inc., priority 2005, dated 2010)
